Measurements as given in patent publication US20240140958A1, “FUSED QUADRACYCLIC COMPOUNDS, COMPOSITIONS AND USES THEREOF” (Tabomedex Biosciences, Inc., priority 2021, published 2024).

Tests used:
[1] = biological target: T1, MAPKAPK2 Recombinant Human Protein (Homo sapiens, UniProt P49137); experiment: MK2 kinase assay (Z'-LYTE kinase assay kit); settings: inhibition of MK2 biochemical activity; 90 min incubation at room temperature
T1 construct: purchased ThermoFisher pv3317
Protocol: Materials and Reagents for Measuring Inhibition of MK2 Biochemical Activity: • 1) Assay plate: 384 Well Low Volume Black Round Bottom Polystyrene NBS Microplate (Corning, Cat.No. 4514) • 2) MK2 kinase assay kit: Z' LYTE KINASE ASSAY KIT (ThermoFisher, Cat.No. pv3177) • 3) MAPKAPK2 Recombinant Human Protein (ThermoFisher, Cat.No. pv3317) • 4) DMSO (Vetec, Cat.No. V900090) • 5) DTT (Sigma, Cat.No. D0632)
MK2 Kinase Assay Procedure: • 1) Dispense 5 μl Kinase/Peptide Mixture to each wells of 384-well plate • 2) Add 2.5 μl 4× Test Compound to each well • 3) Add 2.5 μl 4× ATP Solution to each well • 4) After 90 minutes incubation at room temperature, add 5 μl Development Solution to each well • 5) After 60 minutes incubation at room temperature, add 5 μl stop Solution to each well • 6) Measure the Coumarin (Ex. 400 nm, Em. 445 nm) and Fluorescein (Ex. 400 nm, Em. 520 nm) emission signals on an Envision plate reader (PerkinElmer)

THP-1 cells = experiment: THP-1 cell assay: LPS-stimulated pSer78-Hsp27 ELISA; format: cell-based; settings: Homo sapiens, PMA-differentiated THP-1 cells, compound 60 min before 20 ng/mL LPS for 30 min
Source text: Materials and Reagents for Measuring Activity in THP-1 Cells: • 1) THP-1 cells (Cell bank of Shanghai) • 2) PMA (Sigma, Cat.No. P1585) • 3) LPS (Sigma, Cat.No. L4516) • 4) 96-well tissue-culture treated plate (Grenier, Cat.No. 655180) • 5) FBS (Thermofisher, Cat.No. 10100147) • 6) Complete EDTA-free protease inhibitor Cocktail (Roche, Cat.No. 4693132001) • 7) PhosSTOP (Roche, Cat.No. 4906845001) • 8) Phosphor-Hsp27 (Ser78) Sandwich Elisa kit (CST, Cat.No. 7295)
Cell Assay Procedure: • 1) Day 0: THP-1 cells are seeded at 50K/well in complete media (1640+10% FBS+50 μM β-ME)+20 ng/mL PMA in 96-well plate • 2) Day 1: PMA containing media is removed after 24 h incubation (37° C./5% CO2), and replaced with complete growth media. Cells are incubated an additional 48 h to recover. • 3) Day 3: Cells are incubated with or without compounds at indicated concentrations for 60 min, prior to addition of 20 ng/mL LPS. Cells are stimulated for 30 min with LPS, washed 1× with ice cold PBS, lysed on ice in Lysis buffer provided in ELISA kit with Roche protease & phosphatase inhibitors. Extracts are clarified by refrigerated centrifugation & stored at −80° C. until pHsp27/total Hsp27 ELISAs • 4) Day 3 or Day 4: Cell Signaling Technology ELISA is run for pSer78-Hsp27 on lysates diluted to approximately 2.5 μg/well. • 5) The absorbance at 450 nm was read in a SpectraMax plus plate reader (Molecular Devices). Data was processed using GraphPad prism 8.0.

T1 sequence (P49137 whole entry): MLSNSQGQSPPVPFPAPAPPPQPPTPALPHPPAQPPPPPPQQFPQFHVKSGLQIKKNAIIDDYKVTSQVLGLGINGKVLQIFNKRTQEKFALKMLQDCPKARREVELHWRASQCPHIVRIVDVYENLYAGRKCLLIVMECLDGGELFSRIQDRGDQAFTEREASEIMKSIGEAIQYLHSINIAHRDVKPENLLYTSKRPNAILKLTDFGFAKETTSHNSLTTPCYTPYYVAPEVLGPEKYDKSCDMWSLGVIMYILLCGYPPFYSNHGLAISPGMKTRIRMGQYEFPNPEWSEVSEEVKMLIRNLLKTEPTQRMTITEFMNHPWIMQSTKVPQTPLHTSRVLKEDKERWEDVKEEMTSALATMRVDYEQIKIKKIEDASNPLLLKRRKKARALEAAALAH

Row | IC50 [1] [nM] | IC50 (THP-1 cells) [nM] | Compound
1 | < 50 | 50 to 100 | N#Cc1ccc(-c2cc3n(c2)Cc2cc(C(=O)N4CC(C#N)C4)ccc2-n2ccnc2-3)cc1 [Example 110]
2 | < 50 | < 50 | CN(C)C[C@@H]1CCN(c2ccc3c(c2)Cn2cc(-c4ccc(C#N)cc4)cc2-c2nccn2-3)C1=O (single isomer, unassigned) [Example 36]
3 | < 50 | 100 to 200 | CCNC[C@H]1CC(=O)N(c2ccc3c(c2)Cn2cc(-c4ccc(C#N)cc4)cc2-c2nccn2-3)C1 [Example 10]
4 | < 50 | 100 to 200 | CN(C)C[C@H]1CC(=O)N(c2ccc3c(c2)Cn2cc(-c4ccc(C#N)cc4)cc2-c2ncnn2-3)C1 [Example 87, (R)-4-(7-(4-((Dimethylamino)methyl)-2-oxopyrrolidin-1-yl)-9H-benzo[e]pyrrolo [1,2-a][1,2,4]triazolo[5,1-c][1,4]diazepin-12-yl)benzonitrile]
5 | < 50 | 50 to 100 | CN(CCO)C[C@H]1CCN(c2ccc3c(c2)Cn2cc(-c4ccc(F)cc4)cc2-c2nccn2-3)C1=O [Example 90, (R)-1-(12-(4-Fluorophenyl)-9H-benzo[e]imidazo[2,1-c]pyrrolo[1,2-a][1,4]diazepin-7-yl)-3-(((2-hydroxyethyl)(methyl)amino)methyl)pyrrolidin-2-one]
6 | < 50 | > 1000 | CN1CC(CN2C(=O)CN(c3ccc4c(c3)Cn3cc(-c5ccc(C#N)cc5)cc3-c3nccn3-4)C2=O)C1 [Example 67]
7 | < 50 | 400 to 500 | CN(C)CC1(C)CC(=O)N(c2ccc3c(c2)Cn2cc(-c4ccc(C#N)cc4)cc2-c2nccn2-3)C1 (centres unmarked) [Example 33, 4-(7-(4-((Dimethylamino)methyl)-4-methyl-2-oxopyrrolidin-1-yl)-9H-benzo [e]imidazo[2,1-c]pyrrolo[1,2-a][1,4]diazepin-12-yl)benzonitrile]
8 | < 50 | 500 to 1000 | CN1CC(NC(=O)c2ccc3c(c2)Cn2cc(-c4ccc(C#N)cc4)cc2-c2nccn2-3)C1 [Example 119, 2-(4-Cyanophenyl)-N-(1-methylazetidin-3-yl)-9H-benzo[e]imidazo[2,1-c]pyrrolo [1,2-a][1,4]diazepine-7-carboxamide]
9 | 50 to 100 | 100 to 200 | N#Cc1ccc(-c2cc3n(c2)Cc2cc(N4C[C@@H](CNC5COC5)CC4=O)ccc2-n2ccnc2-3)cc1 [Example 14]
10 | < 50 | 1000 to 1500 | N#Cc1ccc(-c2cc3n(c2)Cc2cc(NC(=O)C4CCNC4)ccc2-n2ccnc2-3)cc1 (centres unmarked) [Example 76, N-(12-(4-Cyanophenyl)-9H-benzo[e]imidazo[2,1-c]pyrrolo[1,2-a][1,4]diazepin-7-yl)pyrrolidine-3-carboxamide]
11 | < 50 | < 50 | CN(C)C[C@@H]1CCN1C(=O)c1ccc2c(c1)Cn1cc(-c3ccc(C#N)cc3)cc1-c1nccn1-2 [Example 116]
12 | < 50 | < 50 | CN(C)CC[C@H]1CCN(c2ccc3c(c2)Cn2cc(-c4ccc(C#N)cc4)cc2-c2nccn2-3)C1=O (single isomer, unassigned) [Example 41]
13 | < 50 | 50 to 100 | CNC[C@H]1CC(=O)N(c2ccc3c(c2)Cn2cc(-c4ccc(C#N)cc4)cc2-c2nccn2-3)C1 [Example 9]
14 | 50 to 100 | 300 to 400 | CN(C)[C@H]1CCN(c2ccc3c(c2)Cn2cc(-c4ccc(C#N)cc4)cc2-c2nccn2-3)C1=O [Example 25, (S)-4-(7-(3-(Dimethylamino)-2-oxopyrrolidin-1-yl)-9H-benzo[e]imidazo [2,1-c]pyrrolo[1,2-a][1,4]diazepin-12-yl)benzonitrile]
15 | 50 to 100 | 100 to 200 | CC(C)N1CCC(C(=O)Nc2ccc3c(c2)Cn2cc(-c4ccc(C#N)cc4)cc2-c2nccn2-3)C1 (centres unmarked) [Example 77, N-(12-(4-Cyanophenyl)-9H-benzo[e]imidazo[2,1-c]pyrrolo[1,2-a][1,4]diazepin-7-yl)-1-isopropylpyrrolidine-3-carboxamide]
16 | 50 to 100 | 300 to 400 | Cc1nnc2n1-c1ccc(N3C[C@@H](CN4CCC4)CC3=O)cc1Cn1cc(-c3ccc(C#N)cc3)cc1-2 [Example 82]

Row | IC50 [1] [nM] | IC50 (THP-1 cells) [nM] | Compound
17 | 50 to 100 | 100 to 200 | CN(CCO)C[C@H]1CC(=O)N(c2ccc3c(c2)Cn2cc(-c4ccc(C#N)cc4)cc2-c2nccn2-3)C1 [Example 11]
18 | < 50 | 500 to 1000 | N#Cc1ccc(-c2cc3n(c2)Cc2cc(N4C[C@@H](CN5CC(F)C5)CC4=O)ccc2-n2ccnc2-3)cc1 [Example 28]
19 | < 50 | < 50 | CC(C)(N)CN1C(=O)CN(c2ccc3c(c2)Cn2cc(-c4ccc(C#N)cc4)cc2-c2nccn2-3)C1=O [Example 68]
20 | 50 to 100 | 200 to 300 | CN1CC2(C1)CN(C(=O)c1ccc3c(c1)Cn1cc(-c4ccc(C#N)cc4)cc1-c1nccn1-3)C2 [Example 109]
21 | < 50 | 300 to 400 | CC(C)(N)C[C@H]1CCN(c2ccc3c(c2)Cn2cc(-c4ccc(C#N)cc4)cc2-c2nccn2-3)C1=O [Example 43, (R)-4-(7-(3-(2-Amino-2-methylpropyl)-2-oxopyrrolidin-1-yl)-9H-benzo[e]imidazo[2,1-c]pyrrolo[1,2-a][1,4]diazepin-12-yl)benzonitrile]
22 | 50 to 100 | 200 to 300 | CN(C)C[C@H]1C[C@@]12CCN(c1ccc3c(c1)Cn1cc(-c4ccc(C#N)cc4)cc1-c1nccn1-3)C2=O [Example 48, 4-(7-((1S,3R)-1-((dimethylamino)methyl)-4-oxo-5-azaspiro[2.4]heptan-5-yl)-9H-benzo[e]imidazo[2,1-c]pyrrolo[1,2-a][1,4]diazepin-12-yl)benzonitrile]
23 | 50 to 100 | 100 to 200 | N#Cc1ccc(-c2cc3n(c2)Cc2cc(N4C[C@@H](CN5CCC(F)C5)CC4=O)ccc2-n2ccnc2-3)cc1 (stereo partly drawn) [Example 26, 4-(7-((4R)-4-((3-Fluoropyrrolidin-1-yl)methyl)-2-oxopyrrolidin-1-yl)-9H-benzo[e]imidazo[2,1-c]pyrrolo[1,2-a][1,4]diazepin-12-yl)benzonitrile]
24 | < 50 | < 50 | CN(C)CC1CCN(c2ccc3c(c2)Cn2cc(-c4ccc(C#N)cc4)cc2-c2nccn2-3)C1=O (centres unmarked) [Example 34, 4-(7-(3-((Dimethylamino)methyl)-2-oxopyrrolidin-1-yl)-9H-benzo[e]imidazo [2,1-c]pyrrolo[1,2-a][1,4]diazepin-12-yl)benzonitrile]
25 | < 50 | < 50 | CN(C)C[C@H]1CCN(c2ccc3c(c2)Cn2cc(-c4ccc(C#N)cc4)cc2-c2nccn2-3)C1=O (single isomer, unassigned) [Example 35]
26 | 50 to 100 | 200 to 300 | N#Cc1ccc(-c2cc3n(c2)Cc2cc(N4C[C@H]5CNC[C@H]5C4=O)ccc2-n2ccnc2-3)cc1 (relative stereo) [Example 30, cis-4-(7-(1-oxohexahydropyrrolo[3,4-c]pyrrol-2(1H)-yl)-9H-benzo[e]imidazo [2,1-c]pyrrolo[1,2-a][1,4]diazepin-12-yl)benzonitrile]
27 | 50 to 100 | 200 to 300 | CN1CC(n2ccn(-c3ccc4c(c3)Cn3cc(-c5ccc(C#N)cc5)cc3-c3nccn3-4)c2=O)C1 [Example 71, 4-(7-(3-(1-Methylazetidin-3-yl)-2-oxo-2,3-dihydro-1H-imidazol-1-yl)-9H-benzo[e]imidazo[2,1-c]pyrrolo[1,2-a][1,4]diazepin-12-yl)benzonitrile]
28 | < 50 | < 50 | N#Cc1ccc(-c2cc3n(c2)Cc2cc(N4C[C@@H](CNC5CC5)CC4=O)ccc2-n2ccnc2-3)cc1 [Example 15]
29 | < 50 | 500 to 1000 | CN(C)[C@H]1C[C@H](NC(=O)c2ccc3c(c2)Cn2cc(-c4ccc(C#N)cc4)cc2-c2nccn2-3)C1 [Example 126]
30 | < 50 | 100 to 200 | CC(C)(C)NC[C@H]1CC(=O)N(c2ccc3c(c2)Cn2cc(-c4ccc(C#N)cc4)cc2-c2nccn2-3)C1 [Example 13]
31 | < 50 | < 50 | CN(C)C1CCN(C(=O)Nc2ccc3c(c2)Cn2cc(-c4ccc(C#N)cc4)cc2-c2nccn2-3)C1 (centres unmarked) [Example 72]
